From patent US9643970B2, “Substituted imidazo [1,5-a]pyrazines as PDE9 inhibitors” (H Lundbeck A/S, priority 2012, dated 2017)

target: PDE9 (Homo sapiens, UniProt O76083); experiment: PDE9 inhibition assay; assay type: biochemical; conditions: not given
Method: Reactions are initiated by addition of the cyclic nucleotide substrate, and reactions are allowed to proceed for one hr at room temperature before being terminated through mixing with 15 uL 8 mg/mL yttrium silicate SPA beads (Amersham). […] IC50 values were calculated by non linear regression using XLfit (IDBS).

Sequence of PDE9 (O76083 whole entry): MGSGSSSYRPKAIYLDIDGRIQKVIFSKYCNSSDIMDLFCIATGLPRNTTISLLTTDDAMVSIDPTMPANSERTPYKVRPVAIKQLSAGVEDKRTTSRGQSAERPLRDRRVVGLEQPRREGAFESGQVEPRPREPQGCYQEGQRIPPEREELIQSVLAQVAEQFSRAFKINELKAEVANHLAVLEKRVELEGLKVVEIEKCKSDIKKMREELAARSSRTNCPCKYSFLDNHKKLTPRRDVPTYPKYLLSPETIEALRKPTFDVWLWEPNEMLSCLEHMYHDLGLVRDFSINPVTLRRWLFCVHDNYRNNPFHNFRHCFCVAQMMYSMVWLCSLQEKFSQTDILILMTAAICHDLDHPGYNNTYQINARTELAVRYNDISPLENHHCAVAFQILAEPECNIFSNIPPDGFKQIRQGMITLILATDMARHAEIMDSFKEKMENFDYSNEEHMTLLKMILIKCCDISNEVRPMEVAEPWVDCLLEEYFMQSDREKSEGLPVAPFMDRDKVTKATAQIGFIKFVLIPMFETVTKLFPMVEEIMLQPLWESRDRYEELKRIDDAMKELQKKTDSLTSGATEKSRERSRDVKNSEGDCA

SMILES	IC50
CC(C)OC1CN(C(C)c2cn3c(C4CCOCC4)ncc3c(=O)[nH]2)C1 (stereo not drawn) [Compound 117, 6-[1-(3-isopropoxyazetidin-1-yl)ethyl]-3-tetrahydropyran-4-yl-7h-imidazo[1,5-a]pyrazin-8-one]	93 nM
CC(C)COC1CN(Cc2cn3c(C4CCCC4)ncc3c(=O)[nH]2)C1 [Compound 58, 3-cyclopentyl-6-[(3-isobutoxyazetidin-1-yl)methyl]-7h-imidazo[1,5-a]pyrazin-8-one]	4 nM
O=c1[nH]c(CN2CC(Oc3ncccn3)C2)cn2c(-c3ccccc3)ncc12 [Compound 5, 3-phenyl-6-[(3-pyrimidin-2-yloxyazetidin-1-yl)methyl]-7h-imidazo[1,5-a]pyrazin-8-one]	30 nM

More lines, now with the values ahead:

IC50	SMILES
127 nM	CCc1ccc(C2CN(Cc3cn4c(-c5ccccc5)ncc4c(=O)[nH]3)C2)cc1 [Compound 11, 6-[[3-(4-ethylphenyl)azetidin-1-yl]methyl]-3-phenyl-7h-imidazo[1,5-a]pyrazin-8-one]
2 nM	N#Cc1ccc(C2CN(Cc3cn4c(-c5ccc(F)cc5)ncc4c(=O)[nH]3)C2)cc1 [Compound 96, 4-[1-[[3-(4-fluorophenyl)-8-oxo-7h-imidazo[1,5-a]pyrazin-6-yl]methyl]azetidin-3-yl]benzonitrile]

same assay, conditions: SPA assay, 10 nM 3H-cAMP, 1 hour incubation; read-out: IC50

SMILES	IC50
O=c1[nH]c(CN2CC(c3ccc(F)cc3)C2)cn2c(C3CCOCC3)ncc12 [Compound 44, 6-[[3-(4-fluorophenyl)azetidin-1-yl]methyl]-3-tetrahydropyran-4-yl-7h-imidazo[1,5-a]pyrazin-8-one]	25 nM
CN(C)c1ccc(C2CN(Cc3cn4c(C5CCCC5)ncc4c(=O)[nH]3)C2)cc1 [Compound 48, 3-cyclopentyl-6-[[3-(4-dimethylaminophenyl)azetidin-1-yl]methyl]-7h-imidazo[1,5-a]pyrazin-8-one]	40 nM
CC(c1cn2c(-c3ccccc3)ncc2c(=O)[nH]1)N1CC(c2ccc(C#N)cc2)C1 (stereo not drawn) [Compound 38, 4-[1-[1-(8-oxo-3-phenyl-7h-imidazo[1,5-a]pyrazin-6-yl)ethyl]azetidin-3-yl]benzonitrile]	23 nM
O=c1[nH]c(CN2CC(Oc3ccncc3)C2)cn2c(-c3ccc(F)cc3)ncc12 [Compound 87, 3-(4-fluorophenyl)-6-[[3-(4-pyridyloxy)azetidin-1-yl]methyl]-7h-imidazo[1,5-a]pyrazin-8-one]	42 nM
Cc1nc2ccccc2nc1OC1CN(Cc2cn3c(C4CCCC4)ncc3c(=O)[nH]2)C1 [Compound 46, 3-cyclopentyl-6-[[3-(3-methylquinoxalin-2-yl)oxyazetidin-1-yl]methyl]-7h-imidazo[1,5-a]pyrazin-8-one]	6 nM

More lines, now with the values ahead:

IC50	SMILES
53 nM	CC(c1cn2c(-c3ccccc3)ncc2c(=O)[nH]1)N1CC(c2ccc(F)cc2)C1 (stereo not drawn) [Compound 28, 6-[1-[3-(4-fluorophenyl)azetidin-1-yl]ethyl]-3-phenyl-7h-imidazo[1,5-a]pyrazin-8-one]
7 nM	CC1CN(Cc2ccccn2)CC1c1cn2c(-c3ccc(F)cc3)ncc2c(=O)[nH]1 (stereo not drawn) [Compound 114, 3-(4-fluorophenyl)-6-[4-methyl-1-(2-pyridylmethyl)pyrrolidin-3-yl]-7h-imidazo[1,5-a]pyrazin-8-one]
191 nM	CC1CN(Cc2ccc(F)cc2)CC1c1cn2c(-c3ccc(OC(F)(F)F)cc3)ncc2c(=O)[nH]1 (stereo not drawn) [Compound 119, 6-[1-[(4-fluorophenyl)methyl]-4-methyl-pyrrolidin-3-yl]-3-[4-(trifluoromethoxy)phenyl]-7h-imidazo[1,5-a]pyrazin-8-one]
97 nM	O=c1[nH]c(CN2CC(Oc3cccc(F)c3)C2)cn2c(-c3ccccc3)ncc12 [Compound 16, 6-[[3-(3-fluorophenoxy)azetidin-1-yl]methyl]-3-phenyl-7h-imidazo[1,5-a]pyrazin-8-one]
4 nM	CC1CN(Cc2ccc3nccnc3c2)CC1c1cn2c(C3CCOCC3)ncc2c(=O)[nH]1 (stereo not drawn) [Compound 97, 6-[4-methyl-1-(quinoxalin-6-ylmethyl)pyrrolidin-3-yl]-3-tetrahydropyran-4-yl-7h-imidazo[1,5-a]pyrazin-8-one]
